Results on two molecules are retold here after US8932627B2, “Liposomal compositions of glucocorticoid and glucocorticoid derivatives” (Yissum Research Development Company of the Hebrew …, priority 2004, dated 2015).

A short description of data set [1]: State of aggregation (turbidity, light scattering at 90°) of MPS as function of pH. Type of data set: physicochemical. As for the experimental part: Aggregation of MPS was determined from the change in turbidity measured as intensity of light scattered at 90° to excitation beam using a spectrofluormeter under conditions that MPS lack absorbance (excitation and emission at the same wavelength Ex=600 nm Em=600 nm). There is a large increase in the light scattered by MPS solution/dispersion due to formation of aggregates.
The intensity of scattered light (at 90° to the excitation), also defined as turbidity is proportional to concentration and to the size of the aggregates. [Zuidam, N. J. and Barenholz, Y., Biochim. Biophys. Acta 1368:115-128 (1998)]. The state of aggregation of MPS was tested in the following manner: To quartz cuvette MPS (2 ml) at concentration of ˜6.5 mg/ml MPS was added. The solution was tittered with HCl (1.756M) and light scattering using excitation and emission at (both at 600 nm with attenuation of 1%) and pH of the solution was monitored.

For data set [2] the following is noted: 26° C.; MPS 0.785-30 mM. As for the experimental part:
Surface tension was measured using μtrouge S (Kibron Inc., Helsinki Finland). A solution containing GC derivative (300 μL) was placed in the well after calibration and zeroing of the sensor using pure water and air. The measurement was performed at 26° C.

Data set [3] is described as follows: Precipitation of MPS by calcium ion (Ca-acetate solution). The format is physicochemical. The settings on record: pH 4.5; 600 mOsm Ca-acetate, 63° C., 5 mg/ml MPS, 40 minutes. On the procedure:
To 600 mOsm Ca-acetate solution at 63° C. and at different pH points MPS was added at final concentration of 5 mg/ml, then mixed solution was incubated for 40 minutes after which the solution was centrifuged and the supernatant was analyzed using HPLC.

The test system of data set [4] is Experimental Autoimmune Encephalomyelitis (EAE). The data set can be described thus: Treatment of acute EAE (PLP 139-151 induced) with SSL-MPS, single injection. The format is in vivo, SJL female mice. The settings on record: 50 mg/kg BW, 1 injection day 14, follow up 3 weeks.
For data set [5] the test system is unchanged. Put plainly: Treatment of severe disease burden in acute EAE (PLP induced). The format is in vivo, SJL female mice. As for the experimental part:
In order to boost the immune system Pertussis Toxin (PT) 150 ng were injected intraperitoneally (i.p.) to the mice on the first day and 48 hours later.
Each mouse was examined daily for clinical signs of EAE using the following Table 4:
For mice showing a severe disease burden (determined by summing the scores of each of the 10 mice in the group and calculating the mean score per day, according to the following equation: Σtotal score of each mouse per day/number of mice in the group) a different treatment was applied. Specifically, after immunization as described above, mice were treated with 50 mg/kg BW SSL-MPS (days 10, 14, 18) or with free-MPS 50 mg/kg BW (days 10, 14, 18) or dextrose 5% (days 10, 14, 18). For each group, the incidence, MMS=mean maximal score; MDD=mean disease duration (days); MDO=mean day of onset and mean score were determined Table 7. Further, for each group the mean clinical scores at each time point was determined (FIG. 6B) as well as the survival curve (FIG. 6A).

Data set [6] deals with J6456 lymphoma cells (mouse T-cell lymphoma). Put plainly: Survival of mice injected i.p. with J6456 lymphoma cells. The format is in vivo, BALB/C mice. As to conditions: free-MPS days 5, 9, 12, SSL-MPS days 5, 9, 12, 16. On the procedure:
At day 1 of the experiment BALB/C mice were injected i.p. with 1 million J6456 lymphoma cells (mouse T-cell lymphoma) then mice were divided into groups and treated by i.v. injections with free-MPS or SSL-MPS according to the following treatment schedule (Table 9).

Data set [7] has as its system BCL-1 (mouse B cell lymphoid leukemia). Put plainly: Survival of BCL-1 tumor bearing mice. The format is in vivo, BALB/C mice. As for the experimental part:
In a further assay, survival of BCL-1 (mouse B cell lymphoid leukemia) tumor bearing mice was determined. […] Then, the mice were divided into groups and treated at days 5, 9, 12, 16, by i.v. injections, with the following treatment formulations: […]
Group I—5 mg/kg BW free-MPS;
Group II—25 mg/kg BW free-MPS;
Group III—5 mg/kg BW SSL-MPS;
Group IV—50 mg/kg BW SSL-MPS.

The test system of the next data set is BCL-1 lymphoma cells. Put plainly: Sensitivity of BCL-1 cell line to MPS. Type of data set: cell-based, mouse.
The conditions of data set [8]: ex vivo stability, after 24 hours, passively loaded liposomes; cited from earlier work.

With `C[C@H]1C[C@@H]2[C@H]([C@@H](O)C[C@@]3(C)[C@H]2CC[C@]3(O)C(=O)COC(=O)CCC(=O)[O-])[C@@]2(C)C=CC(=O)C=C12.[Na+]` [MPS, methylprednisolone sodium hemisuccinate], in data set [1] (acidic pH, FIG. 1A), the “state of aggregation (turbidity)” value is given as “it aggregates”. Also, in data set [1] (pH 7.2, FIG. 1A), the “state of aggregation (turbidity)” value is on record as “non-aggregated water soluble”. Further, in data set [2], the “surface activity (surface tension)” value was “surface active at all concentrations used”. Moreover, the “% MPS precipitated” value in data set [3] was determined as 97%. For the same molecule, in [4], the Incidence is on record as 7/9, the “MDD (mean disease duration)” value is recorded as 10.9 ± 2.7 days, the “MDO (mean day of onset)” value is given as 16.7 ± 1.83 and the “MMS (mean maximal score)” value turned out to be 2.35 ± 0.39. Besides, the “Mean Score” value in [4] is 0.861 ± 0.105. In data set [5] (50 mg/kg BW days 10, 14, 18), the “#dead” value is 3, the Incidence is given as 9/9, the “MDD (mean disease duration)” value came to 10.11 ± 1.92 days and the “MDO (mean day of onset)” value stood at 12.67 ± 0.65. In data set [5] (50 mg/kg BW days 10, 14, 18), the “MMS (mean maximal score)” value is listed as 4.44 ± 0.50 and the “Mean Score” value turned out to be 2.62 ± 0.208. For the same molecule, the survival / mortality result in data set [5] (50 mg/kg BW days 10, 14, 18, FIG. 6A) is listed as “there was mortality”. Moreover, the “mean clinical score at day 19” value in [5] (50 mg/kg BW days 10, 14, 18, FIG. 6B) is about 3. Further, the Median survival in data set [6] (15 mg/kg BW i.v.) came out at 16. This molecule also registered a Median survival in data set [6] (50 mg/kg BW i.v.) of 16. Besides, the Survival median in data set [7] (5 mg/kg BW i.v. days 5, 9, 12, 16) came to 19. The Survival median in [7] (25 mg/kg BW i.v. days 5, 9, 12, 16) was 19. Further, in the data set with BCL-1 lymphoma cells (BCL-1), the “sensitivity of the cell line” value was “highly sensitive”. In addition, in the data set on BCL-1 lymphoma cells (BCL-1 lymphoma cells (B cell line)), the IC50 result is given as “in the nmolar range”.

triamcinolone acetonide phosphate: the “acidic corticosteroid retained by the liposome” value in data set [8] is given as “more than 75%”.
